The values that follow come from patent publication US8288419B2, “Aminopyrazole derivatives” (Actelion Pharmaceuticals, Ltd, priority 2007, dated 2012).

This experiment has as its target T1, recombinant human ALX receptor (Homo sapiens, UniProt P25090).
T1 construct: expressed in transfected cells; host or cells: HEK293 (HEK293-hALXR-Gα16)
T1 sequence (P25090 1-351): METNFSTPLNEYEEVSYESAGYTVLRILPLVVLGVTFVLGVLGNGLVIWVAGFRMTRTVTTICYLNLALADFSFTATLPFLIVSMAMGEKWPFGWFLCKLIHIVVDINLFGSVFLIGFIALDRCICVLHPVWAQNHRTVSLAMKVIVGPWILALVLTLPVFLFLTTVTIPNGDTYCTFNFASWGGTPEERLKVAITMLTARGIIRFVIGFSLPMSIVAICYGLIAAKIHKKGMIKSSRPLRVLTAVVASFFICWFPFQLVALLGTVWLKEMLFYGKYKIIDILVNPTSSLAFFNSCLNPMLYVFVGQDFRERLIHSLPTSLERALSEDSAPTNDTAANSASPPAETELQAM
Put plainly: Intracellular calcium measurements (FLIPR), ALX receptor agonistic activity. Type of experiment: cell-based. As to conditions: HEK293-hALXR-Gα16 cells, Fluo-4 calcium fluorescence, normalized to 10 nM WKYMVm. The method, then:
The ALX receptor agonistic activity of the compounds of formula (I) is determined in accordance with the following experimental method.
Intracellular Calcium Measurements:
Cells expressing recombinant human ALX receptor and the G-protein Gα16 (HEK293-hALXR-Gα16) were grown to 80% confluency in Growing Medium (GM). […] Stock solutions of test compounds were made up at a concentration of 10 mM in DMSO, and serially diluted in AB to concentrations required for activation dose response curves. WKYMVm (Phoenix Peptides) was used as a reference agonist. A FLIPR384 instrument (Molecular Devices) was operated according to the manufacturer's standard instructions, adding 4 μl of test compound dissolved at 10 mM in DMSO and diluted prior to the experiment in assay buffer to obtain the desired final concentration. Changes in fluorescence were monitored before and after the addition of test compounds at lex=488 nm and lem=540 nm. Emission peak values above base level after compounds addition were exported after base line subtraction. Values were normalized to high-level control (WKYMVm compound, 10 nM final concentration) after subtraction of the base line value (AB addition). The program XLlfit 3.0 (IDBS) was used to fit the data to a single site dose response curve of the equation (A+((B−A)/(1+((C/x)^D)))) and to calculate the EC50 values.

The term EC50 denotes the midpoint of the concentration-response curve. In the case of `CC(F)(F)CCCCn1cc(NC(=O)OCc2ccccc2Cl)cn1` [Example 203, [1-(5,5-Difluoro-hexyl)-1H-pyrazol-4-yl]-carbamic acid 2-chloro-benzyl ester], the EC50 is 28 nM. As for `CC(=O)c1ccc(Cn2ccc(NC(=O)c3nc(C)oc3-c3cccc(-c4ccccc4)c3)n2)o1` [Example 354, 5-Biphenyl-3-yl-2-methyl-oxazole-4-carboxylic acid [1-(5-acetyl-furan-2-ylmethyl)-1H-pyrazol-3-yl]-amide], the EC50 was 60 nM.

Consider `CC(F)(F)CCCCn1ccc(NC(=O)c2ncoc2-c2ccccc2)n1` [Example 202, 5-Phenyl-oxazole-4-carboxylic acid [1-(5,5-difluoro-hexyl)-1H-pyrazol-3-yl]-amide], for which the EC50 worked out at 899 nM.

Take `CC(=O)c1cnc(Cn2ccc(NC(=O)c3ncoc3-c3ccccc3)n2)o1` [Example 465, 5-Phenyl-oxazole-4-carboxylic acid [1-(5-acetyl-oxazol-2-ylmethyl)-1H-pyrazol-3-yl]-amide]: the EC50 was 73 nM. `CC(F)(F)c1ccc(Cn2ccc(NC(=O)OCc3cccc(C(F)(F)F)c3)n2)o1` [Example 280, {1-[5-(1,1-Difluoro-ethyl)-furan-2-ylmethyl]-1H-pyrazol-3-yl}-carbamic acid 3-trifluoromethyl-benzyl ester]: the EC50 is 27 nM. The value for `CC(=O)c1ccc(Cn2ccc(NC(=O)c3nc(C)oc3-c3cccc(OC(F)(F)F)c3)n2)s1` [Example 392, 2-Methyl-5-(3-trifluoromethoxy-phenyl)-oxazole-4-carboxylic acid [1-(5-acetyl-thiophen-2-ylmethyl)-1H-pyrazol-3-yl]-amide] was 237 nM; that for `CCc1ccccc1COC(=O)Nc1cnn(Cc2ccc(C(C)(F)F)o2)c1` [Example 314, {1-[5-(1,1-Difluoro-ethyl)-furan-2-ylmethyl]-1H-pyrazol-4-yl}-carbamic acid 2-ethyl-benzyl ester] was 27 nM; that for `CC(=O)c1ccc(Cn2cc(NC(=O)c3nc(Cc4ccccc4)oc3-c3ccccc3)cn2)o1` [Example 432, 2-Benzyl-5-phenyl-oxazole-4-carboxylic acid [1-(5-acetyl-furan-2-ylmethyl)-1H-pyrazol-4-yl]-amide] was 200 nM. In the case of `CC(=O)c1ccc(Cn2ccc(NC(=O)c3ncoc3-c3cccc(C(=O)OC(C)(C)C)c3)n2)o1` [Example 381, 3-{4-[1-(5-Acetyl-furan-2-ylmethyl)-1H-pyrazol-3-ylcarbamoyl]-oxazol-5-yl}-benzoic acid tert-butyl ester], the EC50 worked out at 35 nM. Then `CC(=O)c1ccc(Cn2cc(NC(=O)c3nc(C)sc3-c3cccc(C)c3)cn2)s1` [Example 395, 2-Methyl-5-m-tolyl-thiazole-4-carboxylic acid [1-(5-acetyl-thiophen-2-ylmethyl)-1H-pyrazol-4-yl]-amide], with 170 nM. Then `CC(=O)c1ccc(Cn2cc(NC(=O)c3ncoc3-c3ccno3)cn2)o1` [Example 420, 5-Isoxazol-5-yl-oxazole-4-carboxylic acid [1-(5-acetyl-furan-2-ylmethyl)-1H-pyrazol-4-yl]-amide], with 388 nM; and `CC(=O)CCCCn1cc(NC(=O)/C=C/c2ccccc2Cl)cn1` [Example 157, (E)-3-(2-Chloro-phenyl)-N-[1-(5-oxo-hexyl)-1H-pyrazol-4-yl]-acrylamide], with 330 nM. `CC(=O)c1ccc(Cn2cc(NC(=O)c3ncoc3-c3cccc(C#N)c3)cn2)s1` [Example 397, 5-(3-Cyano-phenyl)-oxazole-4-carboxylic acid [1-(5-acetyl-thiophen-2-ylmethyl)-1H-pyrazol-4-yl]-amide]: the EC50 came to 23 nM. As to `CC(=O)c1ccc(Cn2cc(NC(=O)c3nc(C(C)C)oc3-c3ccccc3)cn2)o1` [Example 424, 2-Isopropyl-5-phenyl-oxazole-4-carboxylic acid [1-(5-acetyl-furan-2-ylmethyl)-1H-pyrazol-4-yl]-amide], the EC50 came out at 114 nM. The value for `CC(=O)c1csc(Cn2cc(NC(=O)OCc3ccccc3Cl)cn2)c1` [Example 442, [1-(4-Acetyl-thiophen-2-ylmethyl)-1H-pyrazol-4-yl]-carbamic acid 2-chloro-benzyl ester] was 94 nM. With `Cc1ccc(F)c(COC(=O)Nc2ccn(CCCCC(C)(F)F)n2)c1F` [Example 282, [1-(5,5-Difluoro-hexyl)-1H-pyrazol-3-yl]-carbamic acid 2,6-difluoro-3-methyl-benzyl ester], the EC50 was 25 nM. As to `CC(F)(F)c1ccc(Cn2cc(NC(=O)OCc3ccccc3Cl)cn2)o1` [Example 199, {1-[5-(1,1-Difluoro-ethyl)-furan-2-ylmethyl]-1H-pyrazol-4-yl}-carbamic acid 2-chloro-benzyl ester], the EC50 came out at 33 nM.

Consider `CC(=O)c1cnc(Cn2cc(NC(=O)c3ncoc3-c3ccccc3)cn2)s1` [Example 435, 5-Phenyl-oxazole-4-carboxylic acid [1-(5-acetyl-thiazol-2-ylmethyl)-1H-pyrazol-4-yl]-amide], for which the EC50 is 445 nM. On to `CC(=O)c1ccc(Cn2cc(NC(=O)c3ncsc3-c3cccc(Cl)c3)cn2)o1` [Example 120, 5-(3-Chloro-phenyl)-thiazole-4-carboxylic acid [1-(5-acetyl-furan-2-ylmethyl)-1H-pyrazol-4-yl]-amide], for which the EC50 is 202 nM. `CC(=O)CCCCn1cc(NC(=O)c2ncoc2-c2ccccc2)cn1` [Example 152, 5-Phenyl-oxazole-4-carboxylic acid [1-(5-oxo-hexyl)-1H-pyrazol-4-yl]-amide]: the EC50 amounted to 191 nM. `CC(=O)c1ncc(Cn2cc(NC(=O)c3ncoc3-c3ccccc3)cn2)s1` [Example 437, 5-Phenyl-oxazole-4-carboxylic acid [1-(2-acetyl-thiazol-5-ylmethyl)-1H-pyrazol-4-yl]-amide]: the EC50 is 99 nM. Regarding `CC(F)(F)CCCCn1ccc(NC(=O)OCc2ccccc2Cl)n1` [Example 201, [1-(5,5-Difluoro-hexyl)-1H-pyrazol-3-yl]-carbamic acid 2-chloro-benzyl ester], the EC50 came out at 154 nM. On to `COCCc1cccc(-c2ocnc2C(=O)Nc2ccn(Cc3ccc(C(C)=O)o3)n2)c1` [Example 379, 5-[3-(2-Methoxy-ethyl)-phenyl]-oxazole-4-carboxylic acid [1-(5-acetyl-furan-2-ylmethyl)-1H-pyrazol-3-yl]-amide], for which the EC50 was 18 nM. Take `CC(=O)c1ccc(Cn2ccc(NC(=O)/C=C/c3cccc(C(F)(F)F)c3F)n2)o1` [Example 45, (E)-N-[1-(5-Acetyl-furan-2-ylmethyl)-1H-pyrazol-3-yl]-3-(2-fluoro-3-trifluoromethyl-phenyl)-acrylamide]: the concentration giving a half-maximal response (EC50) turned out to be 95 nM. As to `CS(=O)(=O)c1ccc(Cn2cc(NC(=O)c3ncoc3-c3ccccc3)cn2)o1` [Example 413, 5-Phenyl-oxazole-4-carboxylic acid [1-(5-methanesulfonyl-furan-2-ylmethyl)-1H-pyrazol-4-yl]-amide], the EC50 stood at 486 nM. The value for `CC(=O)c1csc(Cn2ccc(NC(=O)c3ncoc3-c3cccc(N(C)C)c3)n2)n1` [Example 449, 5-(3-Dimethylamino-phenyl)-oxazole-4-carboxylic acid [1-(4-acetyl-thiazol-2-ylmethyl)-1H-pyrazol-3-yl]-amide] was 182 nM. As to `CC(=O)c1cccc(Cn2cc(NC(=O)OCc3ccccc3Cl)cn2)c1` [Example 366, [1-(3-Acetyl-benzyl)-1H-pyrazol-4-yl]-carbamic acid 2-chloro-benzyl ester], the EC50 came out at 56 nM.

For `CC(=O)c1ccc(Cn2ccc(NC(=O)c3ncoc3-c3cccc(-c4ccccc4)c3)n2)o1` [Example 356, 5-Biphenyl-3-yl-oxazole-4-carboxylic acid [1-(5-acetyl-furan-2-ylmethyl)-1H-pyrazol-3-yl]-amide], the EC50 amounted to 29 nM. Consider `CC(F)(F)c1ccc(Cn2ccc(NC(=O)OCc3ccccc3Cl)n2)o1` [Example 197, {1-[5-(1,1-Difluoro-ethyl)-furan-2-ylmethyl]-1H-pyrazol-3-yl}-carbamic acid 2-chloro-benzyl ester], for which the EC50 was determined as 29 nM. Then `CC(=O)c1csc(Cn2cc(NC(=O)/C=C/c3ccc(C(F)(F)F)cc3)cn2)n1` [Example 389, (E)-N-[1-(4-Acetyl-thiazol-2-ylmethyl)-1H-pyrazol-4-yl]-3-(4-trifluoromethyl-phenyl)-acrylamide], with 79 nM; and `CC(=O)c1cc(Cn2cc(NC(=O)c3ncoc3-c3ccccc3)cn2)cs1` [Example 408, 5-Phenyl-oxazole-4-carboxylic acid [1-(5-acetyl-thiophen-3-ylmethyl)-1H-pyrazol-4-yl]-amide], with 83 nM.
